{
  "source": "patent EP3339444A1",
  "about": "“METHOD FOR OBTAINING A GL[…] AN INCREASED PERCENTAGE OF AF[…]” (Mabxience Research, S.L., priority 2016, dated 2018)",
  "key": {"[1]": {"tested_on": "CHO cell line producing adalimumab", "assay": "Viable cell density (VCD) and viability in fed-batch culture with arginine", "type": "cell-based, Chinese Hamster", "description": "The cells were cultured in AMBR vessels in the cell culture media described above. The vessels were maintained at 36.5 °C, pH 7±0.2, 20% of DO and at 900 rpm of stirrer. They were seeded at 0.5 x 10^6 cells per ml in a volume of 11 mL. On days 0, 3, and 5, at least 2% of initial culture volume of feed medium and 0.2% of initial culture volume of cystine/tyrosine were added. Day 0 is the day in which the cultures were started, day 1 is the first day thereafter, day 2 is the second day thereafter, etc. Protein titer was determined on days 10, 12, 14 and 16.\nThe cells were cultured in 1 L scale bioreactor in the above described cell culture media. The cultures were maintained at 36.5 °C, pH 7±0.2, 20% of oxygen dissolved (DO) and at 200 rpm of stirrer. They were seeded at 0.5 x 10^6 cells per ml in a volume of 600mL. On days 0, 3, and 5, at least 2% of initial culture volume of feed medium and 0.2% of initial culture volume of cystine/tyrosine were added.\n(§1) A transduced CHO cell line was used with three different culture media (Media 1, 2 and 3) in a fed-batch process with 5 different feeds (Feed 1,2,3,4 and 5) and at two culture scales, AMBR system (15 mL culture) and 1 L scale Bioreactors. Feeding strategy was based on maintaining glucose concentration between 3-4 g/L through the addition of different amount of feeding depending on glucose concentration measurement in culture media.\n(§2) Process parameters & Conditions AMBR: T: 36.5 °C; Stirrer: 900 rpm; DO: 20%; pH:6.8-7.20; initial density: 0.5x10^6 cells/mL. Process parameters & Conditions 1 L: T: 36.5 °C; Stirrer: 200 rpm/240 rpm (day 7); DO: 20%; pH: 6.8-7.20; initial density: 0.5x10^6 cells/mL."}, "[2]": {"tested_on": "CHO cell line producing adalimumab", "assay": "Glycosylation profile (N-linked glycans released, labeled, chromatography) with arginine in culture", "type": "cell-based, Chinese Hamster", "description": "as §1, §2\nN-linked glycans were released from IgG samples by overnight incubation with N-glycosidase. The released glycans were labeled with a specific fluorophore. The labeled glycans were bound and separate by a chromatography. N-linked glycan structures were assigned to peaks based on comparison to reference structures. The amount of each structure is expressed as the percentage of total peak area. G0, G1, and G2 refer to complex, neutral, biantennary structures with 0, 1, or 2 terminal galactose residues, while G0F, G1 F, are G2F, are the corresponding core fucosylated structures.\nAfucosylation: [GO-GlcNac + G0 + G1 + G2] / [GO-GlcNac + G0 + G0F + G1 + G1 F + G2 + G2F]"}, "[3]": {"conditions": "Media_1 Feed_2, 2 and 4 g/L arginine, AMBR"}},
  "data": [
    {"compound": "N=C(N)NCCC[C@H](N)C(=O)O", "note": "[Arg, arginine]", "values": [
      {"measurement": "reduction of VCD (maximum)", "setting": "[1]; [3]", "result": "about 2 million cells"},
      {"measurement": "viability", "setting": "[1]; [3]", "result": "do nott affect viability"},
      {"measurement": "cell growth and viability", "setting": "[1]; Media_1 Feed_2, 8 g/L arginine, AMBR", "result": "important reduction on cell growth affecting viability"},
      {"measurement": "maximum cell density", "setting": "[1]; Media_2 Feed_1, 0-4 g/L arginine, AMBR", "result": "does not reduce the maximum cell density reached"},
      {"measurement": "maximum cell density", "setting": "[1]; Media_2 Feed_1, 4 g/L arginine, 1 L bioreactor", "result": "a delay and a decrease in the obtained maximum cell density"},
      {"measurement": "maximum VCD", "setting": "[1]; Media_2 Feed_2, 2 g/L arginine, AMBR", "result": "does not affect maximum VCD"},
      {"measurement": "cell growth", "setting": "[1]; Media_2 Feed_2, 8 g/L arginine, AMBR", "result": "important reduction on cell growth"},
      {"measurement": "cell growth", "setting": "[1]; Media_3 Feed_1, 2 to 4 g/L arginine, AMBR", "result": "reduces cell growth"},
      {"measurement": "cell density", "setting": "[1]; Media_3 Feed_3, 4 g/L arginine in combination with ferric citrate, AMBR", "result": "does not have a negative effect in cell density"},
      {"measurement": "cell density", "setting": "[1]; Media_3 Feed_4, 4 g/L arginine in combination with 1 mM 3-methyl butyrate, AMBR", "result": "does not have a negative effect in cell density"},
      {"measurement": "increment in G0 forms", "setting": "[2]; Media_2 Feed_1, 4 g/L arginine, day 16, 1 L bioreactor", "result": "higher than 50%"},
      {"measurement": "increment in G1 forms", "setting": "[2]; Media_3 Feed_3, 4 g/L arginine, day 14, AMBR", "result": "higher than 50%"},
      {"measurement": "increment in G1 forms", "setting": "[2]; Media_3 Feed_4, 4 g/L arginine, day 16, AMBR", "result": "higher than 50%"}
    ]}
  ]
}
